# Experimental data reported in US8940897B2, “1,3,4-oxadiazole and 1,3,4-thiadiazole β-lactamase inhibitors” (priority 2012, dated 2015).
# Structures can show the parent of a compound that is named as a salt.
# Experiments:
# [1] = test system: bacterial strains that express KPC β-lactamases; assay: Synergy MIC / standard BLI potentiation MIC assay, strains expressing KPC β-lactamases; type: cell-based; conditions: for at least one KPC strain and/or a better spectrum of activity against KPC strains than Avibactam; in the presence of a β-lactam
# Method in brief: (§1)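 CLSI broth microdilution in CAMHB, ~10^5 CFU/mL, 18–20 h at 37 °C with aeration; engineered E. coli kept on 25 μg/mL tetracycline. Potentiation: β-lactam 128–0.13 μg/mL with BLI fixed at 4 μg/mL; synergy MIC: BLI serially diluted with fixed β-lactam. MIC is the lowest concentration without visible turbidity.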
# [2] = test system: bacterial strains that express the class D cephalosporinase OXA-15; assay: Synergy MIC / standard BLI potentiation MIC assay, strains expressing OXA-15;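 note: more active means a lower MIC or sMIC than Avibactam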; type: cell-based, E. coli; conditions: in the presence of a β-lactam; comparator Avibactam (CCC)
# Method in brief: as §1
SMILES,activity against bacterial strains that express KPC β-lactamase compared with Avibactam [1],activity against bacterial strains that express OXA-15 β-lactamase compared with Avibactam [2]
"N[C@H]1C[C@@H](CCc2nnc([C@@H]3CC[C@@H]4CN3C(=O)N4OS(=O)(=O)O)o2)C1 [Compound 754, (2S,5R)-2-(5-(2-((1s,3S)-3-aminocyclobutyl)ethyl)-1,3,4-oxadiazol-2-yl)-7-oxo-1,6-diazabicyclo[3.2.1]octan-6-yl hydrogen sulfate]",more active than Avibactam,more active than Avibactam
"NC1CC(NCc2nnc([C@@H]3CC[C@@H]4CN3C(=O)N4OS(=O)(=O)O)o2)C1 (stereo partly drawn) [Compound 755, (2S,5R)-2-(5-(((3-aminocyclobutyl)amino)methyl)-1,3,4-oxadiazol-2-yl)-7-oxo-1,6-diazabicyclo[3.2.1]octan-6-yl hydrogen sulfate]",more active than Avibactam,more active than Avibactam
"N[C@H]1C[C@@H](NCc2nnc([C@@H]3CC[C@@H]4CN3C(=O)N4OS(=O)(=O)O)o2)C1 [Compound 756, (2S,5R)-2-(5-((((1s,3R)-3-aminocyclobutyl)amino)methyl)-1,3,4-oxadiazol-2-yl)-7-oxo-1,6-diazabicyclo[3.2.1]octan-6-yl hydrogen sulfate]",more active than Avibactam,more active than Avibactam
"O=C1N2C[C@@H](CC[C@H]2c2nnc([C@H]3CCNC3)o2)N1OS(=O)(=O)O [Compound 758, (2S,5R)-7-oxo-2-(5-((S)-pyrrolidin-3-yl)-1,3,4-oxadiazol-2-yl)-1,6-diazabicyclo[3.2.1]octan-6-yl hydrogen sulfate]",more active than Avibactam,more active than Avibactam
"O=C1N2C[C@@H](CC[C@H]2c2nnc([C@@H]3CCNC3)o2)N1OS(=O)(=O)O [Compound 759, (2S,5R)-7-oxo-2-(5-((R)-pyrrolidin-3-yl)-1,3,4-oxadiazol-2-yl)-1,6-diazabicyclo[3.2.1]octan-6-yl hydrogen sulfate]",more active than Avibactam,more active than Avibactam
"N[C@@H]1CN[C@H](c2nnc([C@@H]3CC[C@@H]4CN3C(=O)N4OS(=O)(=O)O)o2)C1 [Compound 760, (2S,5R)-2-(5-((2S,4S)-4-aminopyrrolidin-2-yl)-1,3,4-oxadiazol-2-yl)-7-oxo-1,6-diazabicyclo[3.2.1]octan-6-yl hydrogen sulfate]",more active than Avibactam,more active than Avibactam
"N[C@H]1CN[C@@H](c2nnc([C@@H]3CC[C@@H]4CN3C(=O)N4OS(=O)(=O)O)o2)C1 [Compound 761, (2S,5R)-2-(5-((2R,4R)-4-aminopyrrolidin-2-yl)-1,3,4-oxadiazol-2-yl)-7-oxo-1,6-diazabicyclo[3.2.1]octan-6-yl hydrogen sulfate]",more active than Avibactam,more active than Avibactam
"N[C@H]1CN[C@H](c2nnc([C@@H]3CC[C@@H]4CN3C(=O)N4OS(=O)(=O)O)o2)C1 [Compound 762, (2S,5R)-2-(5-((2S,4R)-4-aminopyrrolidin-2-yl)-1,3,4-oxadiazol-2-yl)-7-oxo-1,6-diazabicyclo[3.2.1]octan-6-yl hydrogen sulfate]",more active than Avibactam,more active than Avibactam
"N[C@@H]1CN[C@@H](c2nnc([C@@H]3CC[C@@H]4CN3C(=O)N4OS(=O)(=O)O)o2)C1 [Compound 763, (2S,5R)-2-(5-((2R,4S)-4-aminopyrrolidin-2-yl)-1,3,4-oxadiazol-2-yl)-7-oxo-1,6-diazabicyclo[3.2.1]octan-6-yl hydrogen sulfate]",more active than Avibactam,more active than Avibactam
"O=C1N2C[C@@H](CC[C@H]2c2nnc(CC3CCNC3)o2)N1OS(=O)(=O)O (stereo partly drawn) [Compound 764, (2S,5R)-7-oxo-2-(5-(pyrrolidin-3-ylmethyl)-1,3,4-oxadiazol-2-yl)-1,6-diazabicyclo[3.2.1]octan-6-yl hydrogen sulfate]",more active than Avibactam,more active than Avibactam
"O=C1N2C[C@@H](CC[C@H]2c2nnc(CN[C@H]3CCNC3)o2)N1OS(=O)(=O)O [Compound 765, (2S,5R)-7-oxo-2-(5-(((S)-pyrrolidin-3-ylamino)methyl)-1,3,4-oxadiazol-2-yl)-1,6-diazabicyclo[3.2.1]octan-6-yl hydrogen sulfate]",more active than Avibactam,more active than Avibactam
"O=C1N2C[C@@H](CC[C@H]2c2nnc(CN[C@@H]3CCNC3)o2)N1OS(=O)(=O)O [Compound 766, (2S,5R)-7-oxo-2-(5-(((R)-pyrrolidin-3-ylamino)methyl)-1,3,4-oxadiazol-2-yl)-1,6-diazabicyclo[3.2.1]octan-6-yl hydrogen sulfate]",more active than Avibactam,more active than Avibactam
"N=C1NCC(c2nnc([C@@H]3CC[C@@H]4CN3C(=O)N4OS(=O)(=O)O)o2)N1 (stereo partly drawn) [Compound 767, (2S,5R)-2-(5-(2-iminoimidazolidin-4-yl)-1,3,4-oxadiazol-2-yl)-7-oxo-1,6-diazabicyclo[3.2.1]octan-6-yl hydrogen sulfate]",more active than Avibactam,more active than Avibactam
"N[C@H]1CC[C@@H](c2nnc([C@@H]3CC[C@@H]4CN3C(=O)N4OS(=O)(=O)O)o2)C1 [Compound 768, (2S,5R)-2-(5-((1R,3S)-3-aminocyclopentyl)-1,3,4-oxadiazol-2-yl)-7-oxo-1,6-diazabicyclo[3.2.1]octan-6-yl hydrogen sulfate]",more active than Avibactam,more active than Avibactam
"O=C1N2C[C@@H](CC[C@H]2c2nnc(CCNC3CCNCC3)o2)N1OS(=O)(=O)O [Compound 770, (2S,5R)-7-oxo-2-(5-(2-(piperidin-4-ylamino)ethyl)-1,3,4-oxadiazol-2-yl)-1,6-diazabicyclo[3.2.1]octan-6-yl hydrogen sulfate]",more active than Avibactam,more active than Avibactam
"O=C1N2C[C@@H](CC[C@H]2c2nnc(CCCNC3CCNCC3)o2)N1OS(=O)(=O)O [Compound 771, (2S,5R)-7-oxo-2-(5-(3-(piperidin-4-ylamino)propyl)-1,3,4-oxadiazol-2-yl)-1,6-diazabicyclo[3.2.1]octan-6-yl hydrogen sulfate]",more active than Avibactam,more active than Avibactam
"O=C1N2C[C@@H](CC[C@H]2c2nnc(CCCCNC3CCNCC3)o2)N1OS(=O)(=O)O [Compound 772, (2S,5R)-7-oxo-2-(5-(4-(piperidin-4-ylamino)butyl)-1,3,4-oxadiazol-2-yl)-1,6-diazabicyclo[3.2.1]octan-6-yl hydrogen sulfate]",more active than Avibactam,more active than Avibactam
"NC1CCN(Cc2nnc([C@@H]3CC[C@@H]4CN3C(=O)N4OS(=O)(=O)O)o2)CC1 [Compound 774, (2S,5R)-2-(5-((4-aminopiperidin-1-yl)methyl)-1,3,4-oxadiazol-2-yl)-7-oxo-1,6-diazabicyclo[3.2.1]octan-6-yl hydrogen sulfate]",more active than Avibactam,more active than Avibactam
"O=C1N2C[C@@H](CC[C@H]2c2nnc(CCN3CCNCC3)o2)N1OS(=O)(=O)O [Compound 776, (2S,5R)-7-oxo-2-(5-(2-(piperazin-1-yl)ethyl)-1,3,4-oxadiazol-2-yl)-1,6-diazabicyclo[3.2.1]octan-6-yl hydrogen sulfate]",more active than Avibactam,more active than Avibactam
"O=C1N2C[C@@H](CC[C@H]2c2nnc(CN3CCNCC3)o2)N1OS(=O)(=O)O [Compound 777, (2S,5R)-7-oxo-2-(5-(piperazin-1-ylmethyl)-1,3,4-oxadiazol-2-yl)-1,6-diazabicyclo[3.2.1]octan-6-yl hydrogen sulfate]",more active than Avibactam,more active than Avibactam
"O=C1N2C[C@@H](CC[C@H]2c2nnc([C@H]3CNCCN3)o2)N1OS(=O)(=O)O [Compound 779, (2S,5R)-7-oxo-2-(5-((R)-piperazin-2-yl)-1,3,4-oxadiazol-2-yl)-1,6-diazabicyclo[3.2.1]octan-6-yl hydrogen sulfate]",more active than Avibactam,more active than Avibactam
